Test results: patent publication US10238688B2, “Combination therapies for bladder cancer” (GENEDIA BIOTECH CO. LTD., priority 2015, dated 2019)

What was measured:
[1] = system: T24; experiment: MTT cell survival / IC50, T24 cells; assay type: cell-based, human
[2] = system: SV-HUC-1; assay type: cell-based
[3] = system: Hypoxia pathway; experiment: Cignal Finder dual-luciferase pathway reporter, Hypoxia; assay type: cell-based, human; design: key to Relative activity, Hypoxia reporter: firefly/renilla ratio, background (negative control) subtracted; conditions: for Relative activity, Hypoxia reporter: luc/Renluc relative to negative control reporter, single drug at 4 folds vs EH/Ci/Mi combination
Method: (§1) The pathway analysis was performed with Qiagen's Cignal Finder Pathway Reporter Array systems according to the manufacturer's instructions. The pathway-focused dual-luciferase reporter construct was a mixture of an inducible transcription factor responsive firefly luciferase reporter and constitutively expressing renilla construct. Transcriptional response element (TRE) sequence response elements to each specific transcriptional factor triggered by the different signaling pathways are positioned before the TATA box of firefly luciferase reporter gene. The extent of activity of the reporter reflects the level of activity of the particular signaling pathway. CMV controlled renilla expression vector is co-transfected into the cell as an internal control. Non-inducible reporter construct that lacks the transcriptional factor binding sequence and could not be induced by any transcription factors is used as a negative control. Cells transfected with CMV directed firefly luciferase reporter gene serve as a positive control. Briefly, cells seeded in 6-well plates were transfected with Cignal finder pathway arrays according to the manufacturer's instructions (Qiagen). Then cells were seeded onto 96-well plates. Ci (6000 ng/mL), Mi (800 ng/mL), or EH (1000 ng/mL) and Ci/Mi/EH combination (Ci, 1500 ng/mL, Mi, 800 ng/mL and EH, 1000 ng/m L) were then added to the cells 24 h post-transfection. After 6 h of incubation with the different drugs at 37° C., cells were lysed and a dual luciferase assay (for firefly and renilla luciferase) was performed using a PromegaGloMax 20/20 illuminometer. The firefly luciferase activities were normalized over the renilla luciferase activities after background activity determined by luciferase activities of negative controls was subtracted. A triple test of cell survival under these drug doses was also performed by MTT assay following 18 h incubation at 37° C. […]

[4] = system: 5637; experiment: MTT cell survival / IC50, 5637 cells; assay type: cell-based, human
[5] = system: Cell Cycle/pRb-E2F pathway; experiment: Cignal Finder dual-luciferase pathway reporter, Cell Cycle/pRb-E2F; assay type: cell-based, human; design: key to Relative activity, Cell Cycle/pRb-E2F reporter: firefly/renilla ratio, background (negative control) subtracted; conditions: for Relative activity, Cell Cycle/pRb-E2F reporter: luc/Renluc relative to negative control reporter, single drug at 4 folds vs EH/Ci/Mi combination
Method: as §1

[6] = system: MAPK/ERK pathway; experiment: Cignal Finder dual-luciferase pathway reporter, MAPK/ERK; assay type: cell-based, human; conditions: for Relative activity, MAPK/ERK reporter: luc/Renluc relative to negative control reporter, single drug at 4 folds vs EH/Ci/Mi combination
Method: as §1

[7] = system: ER Stress pathway; experiment: Cignal Finder dual-luciferase pathway reporter, ER Stress; assay type: cell-based, human; conditions: for Relative activity, ER Stress reporter: luc/Renluc relative to negative control reporter, single drug at 4 folds vs EH/Ci/Mi combination
Method: as §1

In the case of `N.N.[Cl][Pt][Cl]` [Ci, (SP-4-2)-diamminedichloroplatinum(II)], the “Cell survival (%)” value ([1]; Table S3, ng/ml: Pi 40, Pa 160, EH 250, Ci 1500, Mi 200, 1=Ci/Mi, 2=EH/Ci/Mi, 3=Pa/Ci/Mi, 4=Pi/Ci/Mi) was 15.46%, the “Single drug 4X Cell Survival (%)” value ([1]; ng/ml: EH 1000, Ci 6000, Mi 800, Pi 160, Pa 640, Ge 20, EH/Ci/Mi regimen) was 10.49% and the “Single drug 4X Cell Survival (%)” value ([2]; SV-HUC-1, ng/ml: EH 1000, Ci 6000, Mi 800, Pi 160, Pa 640, Ge 20, EH/Ci/Mi regimen) was 26.21%. The “Cell survival 72 hours” value ([2]; SV-HUC-1 cells, Table 4 (A)) was 26.21%, the “ACS (%)” value ([2]; SV-HUC-1 cells, Table 4 (B)) was 26.21% and the “relative drug trigged pathway activity over the no-drug level, Hypoxia” value ([3]; 5637 cells) was 1.64 fold. The “Relative activity, Hypoxia reporter” value ([3]; 5637 cells) was 37.36, the “digitalized pathway activity, Hypoxia” value ([3]; Biu87 cells) was 0 (null (0) if neither of the above holds) and the “relative drug trigged pathway activity over the no-drug level, Hypoxia” value ([3]; Biu87 cells) was 1.32 fold. For the same compound, the “Relative activity, Hypoxia reporter” value ([3]; Biu87 cells) was 10.01, the “relative drug trigged pathway activity over the no-drug level, Hypoxia” value ([3]; H-bc cells) was 0.39 fold and the “Relative activity, Hypoxia reporter” value ([3]; H-bc cells) was 49.11. For the same compound, the “digitalized pathway activity, Hypoxia” value ([3]; SV-HUC-1 cells) was 0 (null (0) if neither of the above holds), the “relative drug trigged pathway activity over the no-drug level, Hypoxia” value ([3]; SV-HUC-1 cells) was 1.19 fold and the “Relative activity, Hypoxia reporter” value ([3]; SV-HUC-1 cells) was 30.20. The “digitalized pathway activity, Hypoxia” value ([3]; UM-UC-3 cells) was 0 (null (0) if neither of the above holds), the “Relative activity, Hypoxia reporter” value ([3]; UM-UC-3 cells) was 41.68 and the “relative drug trigged pathway activity over the no-drug level, Hypoxia” value ([3]; Um-Uc-3 cells) was 0.66 fold. For the same compound, the “Cell survival (%)” value ([4]; 5637, Table S3, ng/ml: Pi 40, Pa 160, EH 250, Ci 1500, Mi 200, 1=Ci/Mi, 2=EH/Ci/Mi, 3=Pa/Ci/Mi, 4=Pi/Ci/Mi) was 20.32%, the “Single drug 4X Cell Survival (%)” value ([4]; 5637, ng/ml: EH 1000, Ci 6000, Mi 800, Pi 160, Pa 640, Ge 20, EH/Ci/Mi regimen) was 1.49% and the “Cell survival 72 hours” value ([4]; 5637 cells, Table 4 (A)) was 2.23%. For the same compound, the “ACS (%)” value ([4]; 5637 cells, Table 4 (B)) was 2.23%, the “relative drug trigged pathway activity over the no-drug level, Cell Cycle/pRb-E2F” value ([5]; 5637 cells) was 1.95 fold and the “Relative activity, Cell Cycle/pRb-E2F reporter” value ([5]; 5637 cells) was 1.77. For the same compound, the “digitalized pathway activity, Cell Cycle/pRb-E2F” value ([5]; Biu87 cells) was 0 (null (0) if neither of the above holds), the “relative drug trigged pathway activity over the no-drug level, Cell Cycle/pRb-E2F” value ([5]; Biu87 cells) was 0.55 fold and the “Relative activity, Cell Cycle/pRb-E2F reporter” value ([5]; Biu87 cells) was 0.31. The “digitalized pathway activity, Cell Cycle/pRb-E2F” value ([5]; H-bc cells) was 0 (null (0) if neither of the above holds), the “relative drug trigged pathway activity over the no-drug level, Cell Cycle/pRb-E2F” value ([5]; H-bc cells) was 0.51 fold and the “Relative activity, Cell Cycle/pRb-E2F reporter” value ([5]; H-bc cells) was 5.86. For the same compound, the “relative drug trigged pathway activity over the no-drug level, Cell Cycle/pRb-E2F” value ([5]; SV-HUC-1 cells) was 1.71 fold, the “Relative activity, Cell Cycle/pRb-E2F reporter” value ([5]; SV-HUC-1 cells) was 8.40 and the “Relative activity, Cell Cycle/pRb-E2F reporter” value ([5]; UM-UC-3 cells) was 2.29. The “relative drug trigged pathway activity over the no-drug level, Cell Cycle/pRb-E2F” value ([5]; Um-Uc-3 cells) was 0.39 fold, the “relative drug trigged pathway activity over the no-drug level, MAPK/ERK” value ([6]; 5637 cells) was 1.74 fold and the “Relative activity, MAPK/ERK reporter” value ([6]; 5637 cells) was 90.77. The “digitalized pathway activity, MAPK/ERK” value ([6]; Biu87 cells) was 0 (null (0) if neither of the above holds), the “relative drug trigged pathway activity over the no-drug level, MAPK/ERK” value ([6]; Biu87 cells) was 0.66 fold and the “Relative activity, MAPK/ERK reporter” value ([6]; Biu87 cells) was 321.19. The “digitalized pathway activity, MAPK/ERK” value ([6]; H-bc cells) was 0 (null (0) if neither of the above holds), the “relative drug trigged pathway activity over the no-drug level, MAPK/ERK” value ([6]; H-bc cells) was 0.71 fold and the “Relative activity, MAPK/ERK reporter” value ([6]; H-bc cells) was 340.57. The “relative drug trigged pathway activity over the no-drug level, MAPK/ERK” value ([6]; SV-HUC-1 cells) was 1.65 fold, the “Relative activity, MAPK/ERK reporter” value ([6]; SV-HUC-1 cells) was 389.00 and the “digitalized pathway activity, MAPK/ERK” value ([6]; UM-UC-3 cells) was 0 (null (0) if neither of the above holds). The “Relative activity, MAPK/ERK reporter” value ([6]; UM-UC-3 cells) was 72.05, the “relative drug trigged pathway activity over the no-drug level, MAPK/ERK” value ([6]; Um-Uc-3 cells) was 0.51 fold and the “relative drug trigged pathway activity over the no-drug level, ER Stress” value ([7]; 5637 cells) was 1.82 fold. For the same compound, the “Relative activity, ER Stress reporter” value ([7]; 5637 cells) was 47.45, the “digitalized pathway activity, ER Stress” value ([7]; Biu87 cells) was 0 (null (0) if neither of the above holds) and the “relative drug trigged pathway activity over the no-drug level, ER Stress” value ([7]; Biu87 cells) was 0.83 fold. The “Relative activity, ER Stress reporter” value ([7]; Biu87 cells) was 18.10, the “digitalized pathway activity, ER Stress” value ([7]; H-bc cells) was 0 (null (0) if neither of the above holds) and the “relative drug trigged pathway activity over the no-drug level, ER Stress” value ([7]; H-bc cells) was 0.82 fold. For the same compound, the “Relative activity, ER Stress reporter” value ([7]; H-bc cells) was 101.61, the “digitalized pathway activity, ER Stress” value ([7]; SV-HUC-1 cells) was 0 (null (0) if neither of the above holds) and the “relative drug trigged pathway activity over the no-drug level, ER Stress” value ([7]; SV-HUC-1 cells) was 1.12 fold. The “Relative activity, ER Stress reporter” value ([7]; SV-HUC-1 cells) was 115.00, the “digitalized pathway activity, ER Stress” value ([7]; UM-UC-3 cells) was 0 (null (0) if neither of the above holds) and the “Relative activity, ER Stress reporter” value ([7]; UM-UC-3 cells) was 67.50. For the same compound, the “relative drug trigged pathway activity over the no-drug level, ER Stress” value ([7]; Um-Uc-3 cells) was 0.83 fold.
